Source: ChEMBL document CHEMBL5726287, “Biaryl acetamide compounds and methods of use thereof” (2017)

molecular target: Mast/stem cell growth factor receptor Kit (Homo sapiens, UniProt P10721); assay: Competition Binding Assay: Competition binding assays used herein were developed, validated and performed as described in Fabian et al., Nature Biotechnology 2005, 23, 329-336. Kinases were produced as fusions to T7 phage (See, Fabian et al. or WO04/015142) or alternatively, the kinases were expressed in HEK-293 cells and subsequently tagged with DNA for PCR detection (See, WO08/005,310). […] The liganded beads were blocked with excess biotin and washed with blocking buffer (SeaBlock (Pierce), 1% BSA, 0.05% Tween 20, 1 mM DTT) to remove unbound ligand and to reduce non-specific binding. […] Test compounds were prepared as 100× stocks in DMSO and diluted into the aqueous environment. Kds were determined using an eleven point threefold serial dilutions. DMSO or control compounds were was added to control assays lacking a test compound.; type: cell-based
Sequence (P10721 whole entry, the tested form may be a part): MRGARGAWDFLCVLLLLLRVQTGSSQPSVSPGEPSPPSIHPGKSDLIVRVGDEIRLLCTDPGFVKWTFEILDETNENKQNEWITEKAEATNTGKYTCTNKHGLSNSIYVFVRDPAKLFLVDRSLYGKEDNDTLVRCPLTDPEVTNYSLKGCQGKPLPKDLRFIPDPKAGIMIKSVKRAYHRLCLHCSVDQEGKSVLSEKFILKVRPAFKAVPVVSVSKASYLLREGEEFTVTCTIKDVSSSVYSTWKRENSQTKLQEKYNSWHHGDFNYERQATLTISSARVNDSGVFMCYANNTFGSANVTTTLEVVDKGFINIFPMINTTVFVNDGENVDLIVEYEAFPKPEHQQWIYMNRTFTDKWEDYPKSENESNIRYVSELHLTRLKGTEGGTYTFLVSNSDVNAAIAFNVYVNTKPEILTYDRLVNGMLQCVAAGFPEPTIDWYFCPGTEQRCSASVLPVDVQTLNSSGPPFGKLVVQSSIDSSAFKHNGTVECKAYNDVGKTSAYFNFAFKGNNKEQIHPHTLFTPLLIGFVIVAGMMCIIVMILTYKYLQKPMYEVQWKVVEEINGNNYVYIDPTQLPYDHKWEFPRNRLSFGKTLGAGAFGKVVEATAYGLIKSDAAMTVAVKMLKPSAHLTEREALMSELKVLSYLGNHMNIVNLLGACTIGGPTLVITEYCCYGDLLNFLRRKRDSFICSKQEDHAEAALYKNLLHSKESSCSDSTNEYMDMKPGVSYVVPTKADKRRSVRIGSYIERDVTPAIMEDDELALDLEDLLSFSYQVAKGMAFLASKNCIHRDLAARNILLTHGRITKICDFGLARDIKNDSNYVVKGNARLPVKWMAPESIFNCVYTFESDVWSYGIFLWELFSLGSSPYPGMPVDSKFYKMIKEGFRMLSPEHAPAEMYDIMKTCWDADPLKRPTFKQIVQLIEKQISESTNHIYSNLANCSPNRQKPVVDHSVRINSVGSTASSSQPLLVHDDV

Kd, < 5 nM:
COc1cc2ncc(-c3ccc(CC(=O)Nc4cc(C5(C(F)(F)F)CC5)on4)cc3)nc2cc1OC
COc1cc2nc(-c3ccc(CC(=O)Nc4cc(C5(C)CC5)no4)c(F)c3)cnc2cc1OCCN1CCOCC1
COc1cc2nc(-c3ccc(CC(=O)Nc4cc(C(C)(C)C(F)(F)F)nn4C)c(F)c3)cnc2cc1OCCN1CCOCC1
